“Also recorded” adds a separate entry of the source.
Assays:
Balb/c mice [1] = test: MPTP-induced akinesia; format: in vivo
Description: (§1) FIG. 3. Effect of irsogladine on MPTP-induced akinesia (A) and catalepsy (B). Assessment of catalepsy was undertaken 2 h after the treatment of MPTP in Balb/c mice. […] Results given are mean±S.E.M., n=6-8 for control group and 10-12 for MPTP-treated groups (*p<0.01 vs. control; Mann-Whitney Rank Sum test).
(§2) Experimental design. The animals were divided into eight groups. The first four groups of animals received either vehicle (0.5% CMC) or different doses of irsogladine (25, 50, and 100 mg/kg). The fifth group of animals was administered with MPTP. The remaining three groups received the two doses of MPTP, and different doses of irsogladine (25, 50, and 100 mg/kg). Each of the control groups consisted of 6-8 animals; while MPTP treated groups consisted of 10-12 animals. The total period of study was 5 days. Each experiment was repeated at least twice on separate days.
(§3) MPTP was dissolved in normal saline and administered intraperitonially (i.p.), twice, 16 h apart, at the dose of 30 mg/kg to mice. The animals received the first injections at 1700 h and the second at 0900 h the next day. Different doses of irsogladine (25, 50, and 100 mg/kg) were suspended in 0.5% sodium CMC and administered to control and MPTP-treated mice. Irsogladine administration started 30 min after the second MPTP injection and continued at an interval of 12 h for the next two days. The volume of injection was 10 μl/g body weight.
Akinesia. Akinesia was measured by noting the latency in seconds (s) of the animals to move all four limbs and the test was terminated if the latency exceeded 180 s. Each animal was initially acclimatized for 5 min on a wooden elevated platform (40 cm×40 cm×30 cm) used for measuring akinesia in mice. Using a stopwatch, the time taken (s) by the animal to move all the four limbs was recorded. This exercise was repeated five times for each animal.

Balb/c mice [2] = test: Striatal DA, DOPAC and HVA by HPLC-electrochemistry in MPTP-treated mice; format: in vivo
Description: FIG. 2. Irsogladine reverses MPTP-induced reductions in striatal DA metabolism. Striatal DA (A) and its metabolites, DOPAC (B) and HVA (C) were assayed employing a sensitive HPLC-electrochemical procedure on the 5th day following the administration of MPTP (30 mg/kg; administered twice, 16 h apart, i.p.). Irsogladine (25, 50 and 100 mg/kg, p.o.) was administered for two days at 12 h intervals following the second MPTP injection. Results given are mean±S.E.M., n=6-8 for control groups and 10-12 for MPTP-treated groups (*p<0.05 vs. control; Student's t-test).
(§4) Animals. Adult male Balb/c mice, weighing 20-25 g were used in the present study. They were housed under standard conditions of temperature (22±1° C.), humidity (60±5%) and illumination (12-h light/dark cycle). The experimental protocol met the National Guidelines on the ‘Proper Care and Use of Animals in Laboratory Research’ (Indian National Science Academy, New Delhi, 2000) and was approved by the Animal Ethics Committee of the Institute. The procedures adhered to the NIH Guidelines for the Care and Use of Laboratory Animals.
as §2, §3
(§5) Analysis of biogenic amines by HPLC-electrochemistry. DA, DOPAC, HVA, 5-HT, and 5-HIAA were assayed employing HPLC equipped with an electrochemical detector. Animals were sacrificed on the 5th day by cervical dislocation. Striata were quickly dissected out from the left and right hemispheres of the brain, weighed, sonicated in chilled HClO4 (0.1 M) containing 0.05% EDTA and centrifuged at 12,500×g for 5 min. The supernatant was injected into an HPLC-ECD system (Merck-Hitachi, Germany). The biogenic amines were separated on an ion-pair Ultrasphere RP analytical column (Beckmann, Calif.). The mobile phase contained 8.65 mM heptane sulfonic acid, 0.27 mM EDTA, 13% acetonitrile (HPLC grade), 0.45% triethylamine, and 0.25% phosphoric acid (v/v). The flow rate was 0.7 ml/min and the glassy carbon working electrode was kept at 0.74 V.

Balb/c mice [3] = test: MPTP-induced catalepsy; format: in vivo; details: for catalepsy (rigidity), drug alone: irsogladine alone, no MPTP
Description: as §1, §2, §3
Catalepsy. The term implies the inability of an animal to correct an externally imposed posture. Catalepsy was measured by placing the animals on a flat horizontal surface with both the hind limbs on a square wooden block (3 cm high) and the latency in seconds was measured to move the hind limbs from the block to the ground. The animals were initially acclimatized on the wooden platform.

Balb/c mice [4] = test: Striatal 5-HT and 5-HIAA levels by HPLC-electrochemistry; format: in vivo; details: for level of 5-HIAA, in words / level of serotonin (5-HT), in words: animals treated with MPTP and/or irsogladine; for 5-HIAA (pmol/mg tissue; Mean ± SEM) / 5-HT (pmol/mg tissue; Mean ± SEM): striatum, 5th day
Description: Serotonin (5-HT) and its metabolite were assayed employing a sensitive HPLC-electrochemical procedure in the striata of Balb/c mice on 5th day following MPTP treatment (30 mg/kg; administered twice, 16 h apart, i.p.). Irsogladine (25, 50 and 100 mg/kg, p.o.) was administered for two days at 12 h intervals following second MPTP injection. Results given are mean±S.E.M., n=6-8 for control groups and 10-12 for MPTP-treated groups
as §4, §2, §3, §5

Balb/c mice [5] = test: Swim-ability (swim score) after MPTP; format: in vivo; details: 4th day
Description: FIG. 4. Irsogladine attenuates MPTP-induced swim disability in mice. Effect of different doses of Irsogladine on the swimming ability of Balb/c mice was tested in warm water (27±2° C.) on the fourth day following the treatment of MPTP (30 mg/kg, i.p., twice, 16 h apart). Swim-scores were recorded on a performance intensity scale of 0-3 for all the animals for 10 min. Results given are mean±S.E.M., n=6-8 for control groups and 10-12 for MPTP-treated groups (p≦0.05; vs. control; Wilcoxon Signed Rank test for group comparison).
as §2
MPTP was dissolved in normal saline and administered intraperitonially (i.p.), twice, 16 h apart, at the dose of 30 mg/kg to mice. The animals received the first injections at 1700 h and the second at 0900 h the next day. […]

[6] = system: MPP^+-induced hydroxyl radical (.OH) in the mitochondria; test: MPP+-induced hydroxyl radical (2,3-DHBA) production in sub-mitochondrial particles; format: biochemical; details: for MPP+-induced 2,3-DHBA (OH adduct of salicylate) production in the mitochondria: irsogladine 0.01-1 mM, MPP+ 100 μM, sub-mitochondrial particles, 30 min; for increase in the production of 2,3-DHBA (OH production): sub-mitochondrial particles incubated with MPP+ (100 μM)
Description: FIG. 1. Irsogladine scavenges MPP^+-induced OH from the mitochondria. Sub-mitochondrial particles were incubated with the neurotoxic metabolite of MPTP, 1-methyl-4-phenyl pyridinium ion (MPP^+) and salicylic acid in the presence and absence of irsogladine. The resulting OH adducts of salicylate, 2,3-dihydroxy benzoic acid (2,3-DHBA) was assayed using a HPLC equipped with electrochemical detector.
Irsogladine scavenges MPP^+-induced hydroxyl radical (.OH) in the mitochondria. The oxidative metabolite of MPTP, 1-methyl-4-phenylpyridinium ion (MPP^+) is selectively taken into the dopaminergic neurons through dopamine transporters, and sequestered in the mitochondria.
Preparation of sub-mitochondrial particles and estimation of hydroxyl radical. Mitochondrial P2 fraction was obtained by making a 10% homogenate of the cerebral cortex, with a glass-Teflon homogenizer in 0.32 M sucrose in cold 10 mM potassium phosphate buffer, pH 7.2. The homogenate was centrifuged at 1,000×g for 10 min at 4° C. using a Sorvall centrifuge. The supernatant was centrifuged at 10,000×g for 30 min. The pellet was resuspended in the same volume of ice-cold 50 mM Tris in 10 mM potassium phosphate buffer (pH 7.2) and centrifuged at 10,000×g for 30 min. This step was repeated once. The pellet thus obtained was suspended in the same volume of ice-cold 10 mM potassium phosphate buffer, pH 7.2 and kept overnight at −20° C. The mitochondrial suspension was thawed, and the protein content was estimated.
The .OH adduct of salicylate, 2,3-dihydroxybenzoic acid (DHBA), was assayed employing HPLC-electrochemistry as described earlier. The ex-vivo OH production was tested in sub-mitochondrial particles. Mitochondrial fraction was incubated with MPP^+ (100 μM) and phosphate buffer (0.1 M) for 5 min. Sodium salicylate (0.75 mM) and different concentrations of irsogladine (0.01-1 mM) were added 5 min after the addition of MPP^+ and incubated for 30 min. The reaction was stopped by adding equal amount of ice-cold perchloric acid (0.1 M) containing 0.01% EDTA, kept on ice for 30 min and then centrifuged at 10,000×g for 5 min. The supernatant was injected into the HPLC system for the assay of 2,3-DHBA. Standard solution containing 2,3-DHBA was injected prior to and after the analyses of the samples, and the products formed are expressed as pmol/mg protein/min.

[7] = MPTP 30 mg/kg i.p. twice, 2 h after second injection, compared to saline treated mice
[8] = MPTP alone (30 mg/kg i.p. twice, 16 h apart)
[9] = highest dose of irsogladine in MPTP-treated mice
[10] = irsogladine 25, 50, 100 mg/kg p.o. in MPTP-treated mice, 2 h after second MPTP injection
[11] = irsogladine post-treatment in MPTP-treated mice
[12] = irsogladine 25 mg/kg p.o. + MPTP
[13] = irsogladine 25 mg/kg p.o., no MPTP
[14] = irsogladine 50 mg/kg p.o. + MPTP
[15] = irsogladine 50 mg/kg p.o., no MPTP
[16] = irsogladine 100 mg/kg p.o. + MPTP
[17] = irsogladine 100 mg/kg p.o., no MPTP

CN1CC=C(c2ccccc2)CC1 [MPTP, 1-methyl-4-phenyl-1,2,3,6-tetrahydropyridine]
akinetic behavior induced by MPTP (Balb/c mice [1]; [7]): significant akinetic
depletion of striatal DA (Balb/c mice [2]; MPTP 30 mg/kg i.p., 2 times 16 h apart, 5th day, compared to saline-injected mice): 55%
cataleptic behavior induced by MPTP (Balb/c mice [3]; [7]): cataleptic
level of 5-HIAA, in words (Balb/c mice [4]): not altered
level of serotonin (5-HT), in words (Balb/c mice [4]): not altered
5-HIAA (pmol/mg tissue; Mean ± SEM) (Balb/c mice [4]; [8]): 2.50 ± 0.24 pmol/mg tissue
5-HT (pmol/mg tissue; Mean ± SEM) (Balb/c mice [4]; [8]): 2.77 ± 0.31 pmol/mg tissue
swim score after MPTP (Balb/c mice [5]; MPTP 30 mg/kg i.p. twice, vs sham-treated animals, from the 2nd minute onwards): significant reduction

Nc1nc(N)nc(-c2cc(Cl)ccc2Cl)n1 [Irsogladine, 2,4-diamino-6-(2,5-dichlorophenyl)-s-triazine]
attenuation of MPTP-induced akinesia, highest dose (Balb/c mice [1]; [9]): complete
attenuation of MPTP-induced akinesia (Balb/c mice [1]; [10]): dose-dependently reduced; also recorded: dose-dependently attenuated
akinesia, drug alone (Balb/c mice [1]; irsogladine alone, no MPTP): absent
protection of striatal DA (Balb/c mice [2]; irsogladine 25, 50 and 100 mg/kg p.o., b.i.d. for 2 days, post-treatment in MPTP-treated mice, 5th day): significant dose-dependant protection
alteration of striatal DA (Balb/c mice [2]; irsogladine alone in control animals): did not cause significant alteration
reversal of MPTP-induced reduction of striatal DOPAC (Balb/c mice [2]; [11]): dose-dependant reversal
reversal of MPTP-induced reduction of striatal HVA (Balb/c mice [2]; [11]): dose-dependant reversal
alteration of striatal DOPAC level (Balb/c mice [2]; irsogladine treatment alone): did not cause any significant alterations
alteration of striatal HVA level (Balb/c mice [2]; irsogladine treatment alone): did not cause any significant alterations
attenuation of MPTP-induced catalepsy, highest dose (Balb/c mice [3]; [9]): complete
attenuation of MPTP-induced catalepsy (Balb/c mice [3]; [10]): dose-dependently reduced; also recorded: dose-dependently attenuated
catalepsy (rigidity), drug alone (Balb/c mice [3]): does not cause catalepsy
catalepsy (rigidity), drug alone (Balb/c mice [3]; listed as irsladine): absent
MPP+-induced 2,3-DHBA (OH adduct of salicylate) production in the mitochondria [6]: significantly attenuated
MPP+-induced 2,3-DHBA (OH adduct of salicylate) production in the mitochondria ([6]; listed as irsogladine): dose-dependently scavenged
level of 5-HIAA, in words (Balb/c mice [4]): not altered
level of serotonin (5-HT), in words (Balb/c mice [4]): not altered
5-HIAA (pmol/mg tissue; Mean ± SEM) (Balb/c mice [4]; [12]): 2.11 ± 0.17 pmol/mg tissue
5-HT (pmol/mg tissue; Mean ± SEM) (Balb/c mice [4]; [12]): 2.64 ± 0.24 pmol/mg tissue
5-HIAA (pmol/mg tissue; Mean ± SEM) (Balb/c mice [4]; [13]): 2.32 ± 0.31 pmol/mg tissue
5-HT (pmol/mg tissue; Mean ± SEM) (Balb/c mice [4]; [13]): 2.52 ± 0.34 pmol/mg tissue
5-HIAA (pmol/mg tissue; Mean ± SEM) (Balb/c mice [4]; [14]): 2.88 ± 0.17 pmol/mg tissue
5-HT (pmol/mg tissue; Mean ± SEM) (Balb/c mice [4]; [14]): 2.97 ± 0.27 pmol/mg tissue
5-HIAA (pmol/mg tissue; Mean ± SEM) (Balb/c mice [4]; [15]): 2.99 ± 0.29 pmol/mg tissue
5-HT (pmol/mg tissue; Mean ± SEM) (Balb/c mice [4]; [15]): 2.96 ± 0.61 pmol/mg tissue
5-HIAA (pmol/mg tissue; Mean ± SEM) (Balb/c mice [4]; [16]): 2.01 ± 0.09 pmol/mg tissue
5-HT (pmol/mg tissue; Mean ± SEM) (Balb/c mice [4]; [16]): 2.68 ± 0.24 pmol/mg tissue
5-HIAA (pmol/mg tissue; Mean ± SEM) (Balb/c mice [4]; [17]): 2.32 ± 0.16 pmol/mg tissue
5-HT (pmol/mg tissue; Mean ± SEM) (Balb/c mice [4]; [17]): 2.52 ± 0.28 pmol/mg tissue
improvement of swim score (Balb/c mice [5]; irsogladine post-treatment in MPTP-treated mice, dose-dependently): significantly improved

C[n+]1ccc(-c2ccccc2)cc1 [MPP^+, 1-methyl-4-phenylpyridinium ion]
increase in the production of 2,3-DHBA (OH production) [6]: 5 fold
increase in the production of 2,3-DHBA (OH production) ([6]; listed as MPP+): about 5 fold

Source: US20090143388A1, “TREATMENT OF BRAIN DISORDERS” (priority 2007, published 2009)
